Results from PMC8218531 (Structure (London, England : 1993), 2021).
Where two headings read alike, the source gives them in different places.

Columns and labels:
[1] = test system: M^pro; conditions: covalent inhibitors, ref Dai et al., 2020, Ma et al., Qiao et al., 2021; cited from earlier work
[2] = target: T1, SARS-CoV-2 M^pro (Severe acute respiratory syndrome coronavirus 2, UniProt P0DTD1); test: Enzyme kinetics of M^pro with inhibitors; format: biochemical; conditions: for in vitro activity against M^pro in words: compounds of this study with hydrophilic groups in S4
[3] = target: T1, SARS-CoV-2 M^pro; conditions: cited from earlier work

In the case of O=CC(CC1CCNC1=O)NC(=O)C(CC1CCCCC1)NC(=O)c1cc2ccccc2[nH]1 (centres unmarked) [Compound 11a], the IC50 in words [1] is given as “Low-nanomolar”.

For O=CC(CC1CCNC1=O)NC(=O)C(Cc1cccc(F)c1)NC(=O)c1cc2ccccc2[nH]1 (centres unmarked) [Compound 11b], the IC50 in words [1] is listed as “Low-nanomolar”.

With CC(C)(O)CCOc1cc(Cl)cc(-c2cc(-c3c[nH]c(=O)[nH]c3=O)cn(-c3cccnc3)c2=O)c1 [Compound 29, 5-(3-(3-Chloro-5-(3-hydroxy-3-methylbutoxy)phenyl)-2-oxo-2H-[1,3'-bipyridin]-5-yl) pyrimidine-2,4(1H,3H)-dione] the IC50 [2] was 0.25 to 0.5 µM, the “decrease in activity compared with 11” value ([2]; compared with compound 11) was “greater than 2 fold” and the “in vitro activity against M^pro in words” value [2] was “high-nanomolar range”.

With O=C1CN(CCOc2cc(Cl)cc(-c3cc(-c4c[nH]c(=O)[nH]c4=O)cn(-c4cccnc4)c3=O)c2)CCN1 [Compound 50, 5-(3-(3-Chloro-5-(2-(3-oxopiperazin-1-yl)ethoxy)phenyl)-2-oxo-2H-[1,3'-bipyridin]-5-yl) pyrimidine-2,4(1H,3H)-dione] the “in vitro activity against M^pro in words” value [2] was “high-nanomolar range”.

For CC(C)C[C@H](NC(=O)OCc1ccccc1)C(=O)N[C@@H](CC1CCNC1=O)C(O)S(=O)(=O)[O-].[Na+] (some centres unmarked) [GC-376], the IC50 in words [1] is given as “Low-nanomolar”.

For N#Cc1ccccc1-c1cc(-c2ccccn2)cn(-c2ccccc2)c1=O [Perampanel, perampanel], the IC50 [3] is given as 100 to 250 µM.
